For the test, the target named is T1, Mannose-6-phosphate isomerase (Homo sapiens, UniProt P34949).
T1 sequence (P34949 whole entry): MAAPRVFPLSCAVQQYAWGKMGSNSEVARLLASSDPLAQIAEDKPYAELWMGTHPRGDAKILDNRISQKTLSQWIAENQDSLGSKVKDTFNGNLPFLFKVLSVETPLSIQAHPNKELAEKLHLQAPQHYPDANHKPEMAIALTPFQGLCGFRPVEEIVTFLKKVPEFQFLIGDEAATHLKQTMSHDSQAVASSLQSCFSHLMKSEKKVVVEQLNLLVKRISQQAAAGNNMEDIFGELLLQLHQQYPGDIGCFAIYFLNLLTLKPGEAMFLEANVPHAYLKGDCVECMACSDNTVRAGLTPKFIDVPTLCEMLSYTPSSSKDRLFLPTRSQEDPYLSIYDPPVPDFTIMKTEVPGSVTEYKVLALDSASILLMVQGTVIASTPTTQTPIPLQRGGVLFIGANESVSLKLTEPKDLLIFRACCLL
Put plainly: Inhibition of human purified phosphomannose isomerase.

From BindingDB's records for doi:10.1021/jm101401a (Sanford-Burnham Medical Research Institute, 2011) come the findings set out here.

The IC50 is the concentration at which inhibition is half-maximal. A high value points to weaker potency.

As for `C=CCn1c(=O)c(=Cc2cc(OC)c(OC)c(OC)c2)s/c1=C(/C#N)c1nc2ccccc2n1C` [2-(1-methyl-2-benzimidazolyl)-2-[4-oxo-3-prop-2-enyl-5-[(3,4,5-trimethoxyphenyl)methylidene]-2-thiazolidinylidene]acetonitrile], the IC50 is above 10 µM.
Under `Oc1c(-c2ccccc2)sc2ccccc12` [2-phenyl-1-benzothiophen-3-one] stands above 10 µM.
